How the values were obtained:
Assay in all cases: relative viability (nuclei count vs DMSO), 5 days (fraction); higher = more cells survive
GW-2580 + Palbociclib = compound: COC1=CC=C(C=C1)COC2=C(C=C(C=C2)CC3=CN=C(N=C3N)N)OC [GW-2580] + CC(=O)c1c(C)c2cnc(Nc3ccc(N4CCNCC4)cn3)nc2n(C2CCCC2)c1=O [Palbociclib] (partner 0.5 µM)
Summary of the method: (§1)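 A single step with final 0.05% Triton X-100, 1% formaldehyde and 1 ug/ml Hoechst fixed the cells and stained nuclei 5 days after treatment. Lung cancer cell lines in 1536-well plates had been treated by pin tool the day after seeding with one drug alone or a fixed anchor-drug dose plus five library-drug doses (not always all listed) in √10 steps, and nuclei were counted on 4× images. Relative viability is the ratio of nuclei in treated wells to nuclei in vehicle wells, taken as the median of duplicate plates.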

GW-2580 + Bortezomib = compound: COC1=CC=C(C=C1)COC2=C(C=C(C=C2)CC3=CN=C(N=C3N)N)OC [GW-2580] + CC(C)C[C@H](NC(=O)[C@H](Cc1ccccc1)NC(=O)c1cnccn1)B(O)O [Bortezomib] (partner 0.002 µM)
Summary of the method: as §1

GW-2580 + Crizotinib = compound: COC1=CC=C(C=C1)COC2=C(C=C(C=C2)CC3=CN=C(N=C3N)N)OC [GW-2580] + C[C@@H](Oc1cc(-c2cnn(C3CCNCC3)c2)cnc1N)c1c(Cl)ccc(F)c1Cl [Crizotinib] (partner 1 µM)
Summary of the method: as §1

Fedratinib + Pictilisib = compound: Cc1cnc(Nc2ccc(OCCN3CCCC3)cc2)nc1Nc1cccc(S(=O)(=O)NC(C)(C)C)c1 [Fedratinib] + CS(=O)(=O)N1CCN(Cc2cc3nc(-c4cccc5[nH]ncc45)nc(N4CCOCC4)c3s2)CC1 [Pictilisib] (partner 1 µM)
Summary of the method: as §1

Fedratinib + Pemetrexed = compound: Cc1cnc(Nc2ccc(OCCN3CCCC3)cc2)nc1Nc1cccc(S(=O)(=O)NC(C)(C)C)c1 [Fedratinib] + Nc1nc2[nH]cc(CCc3ccc(C(=O)N[C@@H](CCC(=O)O)C(=O)O)cc3)c2c(=O)[nH]1 [Pemetrexed] (partner 0.2 µM)
Summary of the method: as §1

Row | Cell Line | relative viability (GW-2580 + Palbociclib; first compound 0.08 µM) | relative viability (GW-2580 + Palbociclib; first compound 0.8 µM) | relative viability (GW-2580 + Palbociclib; first compound 2.53 µM) | relative viability (GW-2580 + Palbociclib; first compound 8 µM) | relative viability (GW-2580 + Bortezomib; first compound 0.08 µM) | relative viability (GW-2580 + Bortezomib; first compound 0.8 µM) | relative viability (GW-2580 + Bortezomib; first compound 2.53 µM) | relative viability (GW-2580 + Bortezomib; first compound 8 µM) | relative viability (GW-2580 + Crizotinib; first compound 0.08 µM) | relative viability (GW-2580 + Crizotinib; first compound 0.8 µM) | relative viability (GW-2580 + Crizotinib; first compound 2.53 µM) | relative viability (GW-2580 + Crizotinib; first compound 8 µM) | relative viability (Fedratinib + Pictilisib; first compound 0.1 µM) | relative viability (Fedratinib + Pictilisib; first compound 0.3162 µM) | relative viability (Fedratinib + Pictilisib; first compound 1 µM) | relative viability (Fedratinib + Pemetrexed; first compound 0.1 µM) | relative viability (Fedratinib + Pemetrexed; first compound 0.3162 µM) | relative viability (Fedratinib + Pemetrexed; first compound 1 µM)
1 | NCI-H1651 | 0.503 | 0.594 | 0.499 | 0.557 | 0.953 | 1.08 | 0.89 | 0.942 | 0.917 | 0.952 | 0.813 | 0.874 | 0.566 | 0.591 | 0.0696 | 0.457 | 0.543 | 0.57
2 | NCI-H1755 | 0.458 | 0.422 | 0.455 | 0.41 | 1.03 | 1.1 | 0.883 | 0.852 | 0.852 | 1.03 | 0.818 | 0.71 | 0.385 | 0.458 | 0.399 | 0.506 | 0.416 | 0.449
3 | NCI-H661 | 0.414 | 0.434 | 0.388 | 0.326 | 0.741 | 0.752 | 0.747 | 0.676 | 0.983 | 1.22 | 0.917 | 0.843 | 0.404 | 0.355 | 0.329 | 0.939 | 0.928 | 0.883
4 | HARA | 0.238 | 0.24 | 0.265 | 0.291 | 1.2 | 1.17 | 1.33 | 1.31 | 1.15 | 1.05 | 1.12 | 0.939 | 0.348 | 0.422 | 0.306 | 0.253 | 0.259 | 0.185
5 | NCI-H23 | 0.529 | 0.549 | 0.469 | 0.545 | 0.979 | 0.988 | 1.12 | 1.04 | 0.431 | 0.508 | 0.506 | 0.362 | 0.428 | 0.619 | 0.156 | 0.681 | 0.59 | 0.497
6 | LCLC-97TM1 | 0.214 | 0.308 | 0.199 | 0.221 | 0.404 | 1.02 | 0.288 | 0.982 | 0.554 | – | 0.303 | 0.284 | 0.196 | 0.169 | 0.15 | 0.204 | 0.151 | 0.169
7 | EPLC-272H | 0.317 | 0.337 | – | 0.313 | 1.33 | 1.07 | 0.963 | 1.01 | 0.831 | 1.13 | 0.954 | 0.904 | 0.257 | 0.35 | 0.0901 | 0.389 | 0.272 | 0.343
8 | NCI-H1915 | 0.608 | 0.735 | 0.597 | 0.492 | 1 | 1.11 | 0.959 | 1.05 | 0.896 | 1.14 | 1.03 | 0.905 | 0.927 | 0.9 | 0.405 | 0.599 | 0.464 | 0.425
9 | NCI-H2405 | 0.512 | 0.546 | 0.463 | 0.49 | 1.02 | 1.03 | 0.807 | 0.951 | 0.827 | 0.885 | 0.753 | 0.78 | 0.338 | 0.443 | 0.34 | 1.07 | 1.12 | 0.863
10 | NCI-H322M | 0.5 | 0.453 | 0.476 | 0.29 | 1.29 | 1.4 | 1.31 | 1.43 | 0.982 | 0.969 | 0.994 | 0.862 | 0.5 | 0.503 | 0.406 | 0.61 | 0.651 | 0.538
11 | NCI-H838 | 0.228 | 0.25 | 0.2 | 0.251 | 0.943 | 0.831 | 0.691 | 1.02 | 0.946 | 0.904 | 0.779 | 0.8 | 0.449 | 0.47 | 0.213 | 0.236 | 0.224 | 0.225
12 | CAL-12T | 0.639 | 0.416 | 0.517 | 0.413 | 0.901 | 1.28 | 0.884 | 1.16 | 0.632 | – | 0.59 | 0.577 | 0.454 | 0.615 | 0.162 | 1.02 | 1.2 | 1.31

Reference: the supplement of paper PMC10307832
